Test results reported in patent publication US20070219213A1, “Use of Adrenergic N-Phenylpiperazine Antagonists, Pahrmaceutical Compositions Containning Them, and Methods of Preparing Them” (priority 2004, published 2007).
Entries after “also recorded” stand apart in the source; their conditions may differ.

What was measured:
[1] = tested on: muscarinic cholinergic receptors; assay: Cobaio (guinea pig) trachea contraction induced by carbacol; type: cell-based; conditions: 30 microM compound, carbacol 10 microM
Description: (§1) Selectivity Assay for Protein G-Coupled, Beta-Adrenergic, Muscarinic Cholinergic and Histaminergic Bioreceptors
(§2) Determination of the Inhibitory Potency (IC50) of LASSBio 772 on Vasoconstriction of the Cobaio (Guinea Pig) Trachea
(§3) Cobaios albinos from both sexes, weighing between 400 and 600 g were used in this experiment. The animals were sacrificed by cervical displacement and posterior bleed. Then, their tracheas were removed, kept in 5 microM indometacin added Krebs-Henseleit physiologic solution and oxygenated with carbogenic mixture (95% O2 and 5% CO2), proceeding the removal of the connective and adhered adipose tissue. From these tracheas were obtained segments with 4-6 rings, that are sectioned in the opposite side of the smooth musculature, originating strips used in the contractions assay (ARAKIDA et al., J. Pharmacol. Exper. Therap., 287: 633-639, 1998). […]
(§4) After the period, the organ is treated with agonists that will induce contractions. […] The tissue viability was evaluated by contraction induction with histamine 100 microM or carbacol 10 microM. […]
The compound LASSBio 772 was evaluated in the concentration of 30 microM as for its relaxation capability in comparison to contractions induced by carbacol, muscarinic cholinergic agonist, at a 10 microM concentration.

[2] = tested on: phenylephrine vasopressor effects; assay: Inhibition of phenylephrine vasopressor effects in anesthetized rabbits; type: in vivo; conditions: rabbit, i.v., versus control curve
Description: Animal and Homodynamic Measurements:
The experiments were performed with male rabbits weighing 3 kg, from the CECAL (Centro de Criação de Animais de Laboratório) at Fundação Oswaldo Cruz. The animals were anesthetized with sodium pentobarbital (40 mg/kg) in the ear marginal vein, and anesthesia maintenance was obtained with supplemental intravenous (i.v.) doses of 5 mg/kg as necessary. The […] were tracheomized, inserted with a polyethylene canule, and immobilized with pancuronium bromide (1 mg/kg, i.v.), with supplemental doses of 0.2 mg/kg for each hour of experiment and artificially ventilated with a mechanical fan (Rodent ventilator 7025, Ugo Basile) with a volume of 10 ml/kg and frequency from 40 to 50 incursions/min. The right femoral vein was catheterized for drug administration.
The arterial pressure was monitored through abdominal aorta catheter via the right femoral artery and connected to a quartz transductor Hewlett Packard (1290 A), which was connected to an arterial pressure processor and recorder Hewlett Packard (system 7754 with amplifier 8805 B).
The systolic (SAP) and diastolic (DAP) arterial pressures were obtained directly from the records and the average arterial pressure (AAP) was calculated by DAP's Sum with a third of the differential pressure [[…]]. The cardiac frequency was determined by counting the pressure waves, visualized with the speed increase of the recorder paper.
The cardiac debit (DC) was monitored using an electromagnetic probe, connected to a Skalar flowmeter model MDL 1401. After left thoraxatomy, between the second and third ribs, was made an incision in the pericardium and the heart was exposed to enable the visualization and dissection of the ascending aorta for installation of the electromagnetic probe. The systemic vascular resistance (SVR) was calculated as a quotient of the average arterial pressure by the cardiac debit, multiplied by a conversion factor 80 (SVR=AAP/DC×80) and expressed in dyn/seg/cm-5.
At the conclusion of the anesthetic-surgical procedures, a 15-minute period was allowed for stabilization of the homodynamic parameters. Before any pharmacological manipulation the average arterial pressure, cardiac frequency and cardiac debit measurements were obtained. These values were considered basal homodynamic values.
Dose-Response Curve of the Phenylephrine Vasopressor Effect:
After surgical procedures and stabilization of the homodynamic parameters, a dose-response curve of the phenylephrine pressure effects was performed ([…], i.v.), that were named control curves. […]
The results were expressed as average±standard deviation (E.P.M.) The administration effects of LASSBio 772 with regard to the basal values were analyzed through variance analysis (ANOVA) for repeated measurements. […]

[3] = molecular target: T1, beta 2 adrenergic receptors (Cavia porcellus, UniProt Q8K4Z4); assay: Salbutamol relaxation of cobaio trachea pre-contracted with carbacol; type: cell-based, guinea pig; conditions: salbutamol 10^−10-3.3×10^−5 M, strips pre-contracted with carbacol 10 microM, n=4
T1 construct: from tissue; host or cells: guinea pig trachea strips pre-contracted with carbachol
Description: as §1, §2, §3, §4
In another experiment the compound was evaluated for its capability to inhibit the relaxation produced by salbutamol (10^−10-3.3×10^−5 M), beta 2 adrenergic agonist, in strips of cobaio trachea pre-contracted with carbacol (10 microM).

T1 sequence (Q8K4Z4 whole entry): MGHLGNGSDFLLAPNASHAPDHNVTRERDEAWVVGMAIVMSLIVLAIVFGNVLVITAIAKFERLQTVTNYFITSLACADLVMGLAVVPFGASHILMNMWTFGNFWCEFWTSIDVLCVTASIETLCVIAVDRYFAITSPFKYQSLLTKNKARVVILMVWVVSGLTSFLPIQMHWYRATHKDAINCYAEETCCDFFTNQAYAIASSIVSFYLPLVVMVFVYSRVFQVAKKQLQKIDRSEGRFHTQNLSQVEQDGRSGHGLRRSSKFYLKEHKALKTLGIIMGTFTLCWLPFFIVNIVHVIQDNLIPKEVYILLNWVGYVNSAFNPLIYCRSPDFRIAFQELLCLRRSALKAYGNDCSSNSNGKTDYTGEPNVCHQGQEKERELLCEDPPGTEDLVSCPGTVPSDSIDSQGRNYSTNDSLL

## COc1ccccc1N1CCN(CCc2ccc3c(c2)OCO3)CC1 [LASSBio 772, 1-(2-1,3-Benzodioxol-5-yl-ethyl)-4-(2-methoxy-phenyl)-piperazine]
[1]
  inhibition of carbacol-induced contractions: not able to significantly inhibit the contractions; also recorded: did not present any activity
[1]; n=3
  % of Contraction: 122.1±8.6%
[2]
  blockade of phenylephrine effects: significantly blocked; also recorded: prevented the phenylephrine hypo-tensor effect
[3]
  inhibition of the relaxation produced by salbutamol: not able to inhibit significantly the relaxing effect of salbutamol; also recorded: did not present any activity
